Here are results for 19 molecules from patent US8877946B2, “Benzylidene-indolinone compounds and their medical use” (National University of Singapore, priority 2011, dated 2014).

Bounds are passed on as bounds.

This assay relates to HuH7 cells. Briefly: MTT antiproliferative (growth inhibition) assay on HuH7 cells. The assay is classed as cell-based, human. The settings on record: Homo sapiens, Huh-7, MTT, 72 h incubation, mean and SD of 3 or more independent determinations (Tables 1-8), read-out: IC 50. An excerpt: MTT was purchased from DUCHEFA Biochemie ([…]). Sunitinib, and sodium dodecyl sulfate, bovine serum albuminwere obtained from Sigma Aldrich (Singapore). Sorafenib was purchase from Ontario Chem. Fetal bovine serum (FBS) was obtained from Invitrogen. Human hepatocellular carcinoma cells (HuH-7 and Hep G2), and human diploid fibroblast strain (IMR 90). HuH7 was obtained as gifts from Dr Ho Han Kiat, Department of Pharmacy, NUS. IMR90 and Hep G2 were purchased from American Type Culture Collection (ATCC). HuH-7 cells were cultured in DMEM (Dulbecco's Modified Eagle Medium, high glucose) with 10% v/v fetal bovine serum (FBS), 100 mg/L penicillin G and 100 mg/L streptomycin. IMR 90 cell were cultured in EMEM (Eagle's Minimum Essential Medium), with 10% v/v FBS and 100 mg/L penicillin G and 100 mg/L streptomycin. The cells were sub-cultured when HuH7 or Hep G2 reached a density of 70-80×10^5 cell/T75 flask, and IMR 90 reached 20×10^5 cell/T75 flask. Cells were used within 2-10 passages for viability experiments.
The anti-proliferative activity of the test compounds were determined by the MTT assay. An aliquot (200 μL, 3×10^4 cells/mL for HuH7, 3.75×10^4 cells/mL for Hep G2, and 2×10^4 cells/mL for IMR 90) of medium was added to each well of the microtitre plate. […] The existing medium was removed from each well and replaced by fresh medium (200 μL) containing a known concentration of test compound. The final concentration of DMSO in each well was maintained at 0.5% v/v. (1% v/v was also utilized if the compounds were not soluble) The test compounds were incubated with the cells for another 72 h at 37 deg C., 5% CO2. The medium was then removed from the well and replaced with FBS free medium (200 μL) and MTT (50 μL of 2 mg/mL solution in phosphate buffer saline, pH 7.4). The phosphate buffer saline comprises 10 mM of potassium phosphate and 137 mM sodium chloride. After incubation (3 h) at 37 deg C., 5% CO2, the supernatant was removed and a solution of 200 μL DMSO and 25 μL Sorenson buffer (0.1 M glycine, 0.1 M sodium chloride, adjusted to pH 10.5 with 0.1 M sodium hydroxide) was added to dissolve the formazan crystals in each well. Vehicle control were cells grown in 1% v/v DMSO/Medium for 72 h, 37 deg C., 5% CO2 while blank controls were wells that contained only 200 μL DMSO and 25 μL Sorenson buffer. Absorbances were measured at 570 nm on a microplate reader (Tecan, Infinite 200). The viability of cells at a given concentration of test compound was determined from the expression:
[formula] where abs_compound=absorbance of wells containing cells and test compound, abs_vehicle (Not the same as above. Change to abs_vehicle)=absorbance of vehicle control and abs_blank=absorbance of blank control.
Each concentration of test compound was evaluated at least 3 times on separate occasions, and two different stock solution were used. The IC50 value (concentration that inhibited 50% of cell growth) was determined from the sigmoidal curve obtained by plotting percentage viability versus logarithmic concentration of test compound using GraphPad Prism 5 (San Diego, USA).

On to `O=C1Nc2cc(F)ccc2/C1=C\c1cccc(OC(F)(F)F)c1` [Compound 3-8, (E)-6-Fluoro-3-(3-trifluoromethoxyl-benzylidene)-1,3-dihydro-indol-2-one], for which the IC50 is 7.48 ± 0.2 µM.

As to `CS(=O)(=O)c1cccc(/C=C2/C(=O)Nc3cc(F)ccc32)c1` [Compound 3-9, (E)-6-Fluoro-3-(3-methanesulfonyl-benzylidene)-1,3-dihydro-indol-2-one], the IC50 came to 12.7 ± 1.54 µM.

Regarding `O=C1Nc2ccc(F)cc2/C1=C\c1ccccc1` [Compound 4-1, (E)-3-Benzylidene-5-fluoro-1,3-dihydro-indol-2-one], the IC50 is 21.4 ± 1.73 µM.

Regarding `O=C1Nc2ccc(F)cc2/C1=C\c1ccccc1F` [Compound 4-2, (E)-5-Fluoro-3-(2-fluoro-benzylidene)-1,3-dihydro-indol-2-one], the IC50 is above 30 µM.

Turning to `O=C1Nc2ccc(F)cc2/C1=C\c1cccc(F)c1` [Compound 4-3, (E)-5-Fluoro-3-(3-fluoro-benzylidene)-1,3-dihydro-indol-2-one], the IC50 was determined as 13.3 ± 2.31 µM.

For the molecule `O=C1Nc2ccc(F)cc2/C1=C\c1ccc(F)cc1` [Compound 4-4, (E)-5-Fluoro-3-(4-fluoro-benzylidene)-1,3-dihydro-indol-2-one], the IC50 was determined as 13.2 ± 0.42 µM.

As for `Cc1ccccc1/C=C1/C(=O)Nc2ccc(F)cc21` [Compound 4-5, (E)-5-Fluoro-3-(2-methyl-benzylidene)-1,3-dihydro-indol-2-one], the IC50 was determined as 11.7 ± 1.1 µM.

As for `Cc1cccc(/C=C2/C(=O)Nc3ccc(F)cc32)c1` [Compound 4-6, (E)-5-Fluoro-3-(3-methyl-benzylidene)-1,3-dihydro-indol-2-one], the IC50 was above 30 µM.

For `Cc1ccc(/C=C2/C(=O)Nc3ccc(F)cc32)cc1` [Compound 4-7, (E)-5-Fluoro-3-(4-methyl-benzylidene)-1,3-dihydro-indol-2-one], the IC50 was 20.8 ± 4.02 µM.

Turning to `COc1cccc(/C=C2/C(=O)Nc3ccc(F)cc32)c1` [Compound 4-8, (E)-5-Fluoro-3-(3-methoxy-benzylidene)-1,3-dihydro-indol-2-one], the IC50 was 16.4 ± 4.15 µM.

Regarding `O=C1Nc2ccc(F)cc2/C1=C\c1ccccc1C(F)(F)F` [Compound 4-9, (E)-5-Fluoro-3-(2-trifluoromethyl-benzylidene)-1,3-dihydro-indol-2-one], the IC50 was above 30 µM.

Take `O=C1Nc2ccc(F)cc2/C1=C\c1cccc(C(F)(F)F)c1` [Compound 4-10, (E)-5-Fluoro-3-(3-trifluoromethyl-benzylidene)-1,3-dihydro-indol-2-one, reference compound]: the IC50 was found to be 4.04 ± 0.54 µM.

`O=C1Nc2ccc(F)cc2/C1=C\c1ccc(C(F)(F)F)cc1` [Compound 4-11, (E)-5-Fluoro-3-(4-trifluoromethylbenzylidene)-1,3-dihydro-indol-2-one]: the IC50 came to 9.31 ± 1.04 µM.

Take `O=C1Nc2ccc(F)cc2/C1=C\c1ccc(F)c(F)c1` [Compound 4-12, (E)-3-(3,4-Difluoro-benzylidene)-5-fluoro-1,3-dihydro-indol-2-one]: the IC50 was 15.3 ± 0.18 µM.

On to `O=C1Nc2ccc(F)cc2/C1=C\c1cccc(OC(F)(F)F)c1` [Compound 4-13, (E)-5-Fluoro-3-(3-trifluoromethoxy-benzylidene)-1,3-dihydro-indol-2-one], for which the IC50 came to 23.1 ± 4.75 µM.

Regarding `CS(=O)(=O)c1cccc(/C=C2/C(=O)Nc3ccc(F)cc32)c1` [Compound 4-14, (E)-5-Fluoro-3-(3-methanesulfonyl-benzylidene)-1,3-dihydro-indol-2-one], the IC50 worked out at 5.19 ± 0.63 µM.

For the molecule `N#Cc1cccc(/C=C2/C(=O)Nc3ccc(F)cc32)c1` [Compound 4-15, (E) 3-(5-Fluoro-2-oxo-1,2-dihydro-indol-3-ylidenemethyl)-benzonitrile], the IC50 worked out at 7.36 ± 1.08 µM.

Take `COc1ccc2c(c1)NC(=O)/C2=C/c1ccccc1` [Compound 5-1, (E)-3-Benzylidene-6-methoxy-1,3-dihydro-indol-2-one]: the IC50 was found to be 0.94 ± 0.19 µM.

With `COc1ccc2c(c1)NC(=O)/C2=C/c1ccccc1F` [Compound 5-2, (E)-3-(2-Fluoro-benzylidene)-6-methoxy-1,3-dihydro-indol-2-one], the IC50 amounted to 0.49 ± 0.05 µM.
